{"source": "patent US4278663A", "about": "“Antibiotic X-14868A, B, C and D” (Hoffmann-La Roche Inc., priority 1980, dated 1981)", "key": {"[1]": {"test_system": "Streptococcus faecium ATCC 8043", "test": "Antimicrobial activity, Minimum Inhibitory Concentration (Table 4)", "assay_type": "cell-based", "conditions": "G (+) cocci"}, "[2]": {"test_system": "Staphylococcus aureus 82 ATCC 6538p", "test": "Antimicrobial activity, Minimum Inhibitory Concentration (Table 4)", "assay_type": "cell-based", "conditions": "G (+) cocci"}, "[3]": {"test_system": "Sarcina lutea PCI ATCC 9341", "test": "Antimicrobial activity, Minimum Inhibitory Concentration (Table 4)", "assay_type": "cell-based", "conditions": "G (+) cocci"}, "[4]": {"test_system": "Bacillus megaterium 164 ATCC 8011", "test": "Antimicrobial activity, Minimum Inhibitory Concentration (Table 4)", "assay_type": "cell-based", "conditions": "G (+) rods"}, "[5]": {"test_system": "Bacillus sp.E ATCC 27859", "test": "Antimicrobial activity, Minimum Inhibitory Concentration (Table 4)", "assay_type": "cell-based", "conditions": "G (+) rods"}, "[6]": {"test_system": "Bacillus subtilis NRRL 558", "test": "Antimicrobial activity, Minimum Inhibitory Concentration (Table 4)", "assay_type": "cell-based", "conditions": "G (+) rods"}, "[7]": {"test_system": "Mycobacterium phlei 78 ATCC 355", "test": "Antimicrobial activity, Minimum Inhibitory Concentration (Table 4)", "assay_type": "cell-based", "conditions": "G (+) filaments"}, "[8]": {"test_system": "Streptomyces cellulosae 097 ATCC 3313", "test": "Antimicrobial activity, Minimum Inhibitory Concentration (Table 4)", "assay_type": "cell-based", "conditions": "G (+) filaments"}, "[9]": {"test_system": "Paecilomyces varioti M16 ATCC 26820", "test": "Antimicrobial activity, Minimum Inhibitory Concentration (Table 4)", "assay_type": "cell-based", "conditions": "Molds"}, "[10]": {"test_system": "Penicillin digitatum 0184 ATCC 26821", "test": "Antimicrobial activity, Minimum Inhibitory Concentration (Table 4)", "assay_type": "cell-based", "conditions": "Molds"}, "[11]": {"test_system": "Candida albicans 155 NRRL 477", "test": "Antimicrobial activity, Minimum Inhibitory Concentration (Table 4)", "assay_type": "cell-based", "conditions": "Yeast"}, "[12]": {"test_system": "Saccharomyces cerevisiae 90 NRRL 4226", "test": "Antimicrobial activity, Minimum Inhibitory Concentration (Table 4)", "assay_type": "cell-based", "conditions": "Yeast"}, "[13]": {"test_system": "in vitro rumen fermentations", "test": "Volatile fatty acid ratio in in vitro rumen fermentations (Table 6)", "set-up": "species or system steer", "conditions": "for VFA Molor Ratio C3 /(C2 +nC4): four hours, 38° C.; for % Positive Control: relative to monensin 50 ppm", "experimental": "Rumen fluid is obtained from a steer with a fistulated rumen. The steer is maintained on the following ration:\nThe rumen fluid is immediately strained through a #30 mesh sieve. For each fermentation, 75 ml of the resulting fluid is added to a 250 ml flask containing the following:\n1 g of 80%:20% finely ground grain: hay ration;\n60 micromoles of each of the 10 essential amino acids (arginine, histidine, leucine, methionine, threonine, valine, lysine, isoleucine, phenylalanine,tryptophan);\nEach flask is incubated at 38° C. in a shaking water bath equipped with a gassing hood. Carbon dioxide is continuously passed through the hood. […] The resulting fluid is permitted to sit at room temperature for 30 minutes. The fluid is filtered through a […] Millipore filter and refrigerated until gas-liquid chromatographic analysis for volatile fatty acids."}, "[14]": {"test_system": "Treponema hyodysenteriae", "test": "Minimum Inhibitory Concentration against Treponema hyodysenteriae (Table 7)", "assay_type": "cell-based", "conditions": "for MIC: Brachyspira hyodysenteriae", "source_text": "The compound was examined for activity against Treponema hyodysenteriae, the etiologic agent of swine dysentery. The results which represent a comparative test following well-known test methods versus a known agent in the treatment and prevention of swine dysentery are set forth in the table below."}, "[15]": {"test_system": "ruminants", "test": "Growth promotion / efficiency of feed utilization in ruminants", "assay_type": "in vivo", "conditions": "result in words"}}, "note": "Read-outs that look alike come from different tables or passages of the source.", "data": [{"smiles": "CO[C@@H]1[C@@H](OC)[C@H](C)[C@@](O)(CC(=O)O)O[C@H]1[C@H](C)[C@H]1O[C@@]2(CC[C@@](C)([C@H]3CC[C@@](C)([C@@H]4O[C@@H]([C@H]5O[C@](C)(O)[C@H](C)C[C@@H]5C)C[C@@H]4O[C@@H]4C[C@H](OC)[C@@H](OC)[C@H](C)O4)O3)O2)C[C@H](O)[C@H]1C.N", "note": "[Antibiotic X-14868A]", "values": [{"measurement": "Minimum Inhibitory Concentration", "setting": "[1]", "result": 0.313, "unit": "µg/mL"}, {"measurement": "Minimum Inhibitory Concentration", "setting": "[2]", "result": 6.25, "unit": "µg/mL"}, {"measurement": "Minimum Inhibitory Concentration", "setting": "[3]", "result": 12.5, "unit": "µg/mL"}, {"measurement": "Minimum Inhibitory Concentration", "setting": "[4]", "result": 12.5, "unit": "µg/mL"}, {"measurement": "Minimum Inhibitory Concentration", "setting": "[5]", "result": 0.39, "unit": "µg/mL"}, {"measurement": "Minimum Inhibitory Concentration", "setting": "[6]", "result": 12.5, "unit": "µg/mL"}, {"measurement": "Minimum Inhibitory Concentration", "setting": "[7]", "result": 12.5, "unit": "µg/mL"}, {"measurement": "Minimum Inhibitory Concentration", "setting": "[8]", "result": 25, "unit": "µg/mL"}, {"measurement": "Minimum Inhibitory Concentration", "setting": "[9]", "result": 250, "unit": "µg/mL"}, {"measurement": "Minimum Inhibitory Concentration", "setting": "[10]", "result": 1000, "unit": "µg/mL"}, {"measurement": "Minimum Inhibitory Concentration", "setting": "[11]", "result": 250, "unit": "µg/mL"}, {"measurement": "Minimum Inhibitory Concentration", "setting": "[12]", "result": 1000, "unit": "µg/mL"}, {"measurement": "VFA Molor Ratio C3 /(C2 +nC4)", "setting": "[13]; 5 ppm", "result": 0.323}, {"measurement": "% Positive Control", "setting": "[13]; 5 ppm", "result": 82.5, "unit": "%"}, {"measurement": "VFA Molor Ratio C3 /(C2 +nC4)", "setting": "[13]; 50 ppm", "result": 0.358}, {"measurement": "% Positive Control", "setting": "[13]; 50 ppm", "result": 91.2, "unit": "%"}, {"measurement": "Minimum Inhibitory Concentration, Mean", "setting": "[14]; mean of four strains", "result": 0.05, "unit": "meg/ml"}, {"measurement": "Minimum Inhibitory Concentration", "setting": "[14]; strain B 169", "result": 0.05, "unit": "meg/ml"}, {"measurement": "Minimum Inhibitory Concentration", "setting": "[14]; strain H 140", "result": 0.05, "unit": "meg/ml"}, {"measurement": "Minimum Inhibitory Concentration", "setting": "[14]; strain H-78", "result": 0.05, "unit": "meg/ml"}, {"measurement": "Minimum Inhibitory Concentration", "setting": "[14]; strain SQ 2", "result": 0.05, "unit": "meg/ml"}, {"measurement": "efficiency of feed utilization in ruminant animals", "setting": "[15]; oral", "result": "increases the efficiency of feed utilization in ruminant animals"}, {"measurement": "activity as a growth promotant in ruminants", "setting": "[15]", "result": "exhibit activity as a growth promotant in ruminants"}]}, {"smiles": "CC(C)c1ncc([N+](=O)[O-])n1C", "note": "[Ipronidazole, reference compound]", "values": [{"measurement": "MIC", "setting": "[14]; mean of four strains, read-out: Minimum Inhibitory Concentration, Mean", "result": 1.1, "unit": "µg/mL"}, {"measurement": "MIC", "setting": "[14]; strain B 169, read-out: Minimum Inhibitory Concentration", "result": 0.63, "unit": "µg/mL"}, {"measurement": "MIC", "setting": "[14]; strain H 140, read-out: Minimum Inhibitory Concentration", "result": 0.63, "unit": "µg/mL"}, {"measurement": "MIC", "setting": "[14]; strain H-78, read-out: Minimum Inhibitory Concentration", "result": 0.63, "unit": "µg/mL"}, {"measurement": "MIC", "setting": "[14]; strain SQ 2, read-out: Minimum Inhibitory Concentration", "result": 2.5, "unit": "µg/mL"}]}, {"smiles": "CC[C@@]1([C@@H]2O[C@@H]([C@H]3O[C@@](O)(CO)[C@H](C)C[C@@H]3C)C[C@@H]2C)CC[C@H]([C@]2(C)CC[C@]3(C[C@H](O)[C@@H](C)[C@@H]([C@@H](C)[C@@H](OC)[C@H](C)C(=O)O)O3)O2)O1", "note": "[Monensin, reference compound]", "values": [{"measurement": "VFA Molor Ratio C3 /(C2 +nC4)", "setting": "[13]; 50 ppm", "result": 0.392}, {"measurement": "% Positive Control", "setting": "[13]; 50 ppm", "result": 100.0, "unit": "%"}]}]}
